The values below come from US6946447B2, “MDM2-specific antisense oligonucleotides” (Hybridon, Inc., priority 1997, dated 2005).

Data set [1] deals with p53. Nature of the data set: BP100-luciferase reporter in several representative cell lines. Conditions: stably transfected cell lines, 20 hr (FIG. 13). The data set is classed as cell-based. As for the experimental part:
Cells stably transfected with the BP100-luciferase reporter were treated with antisense oligonucleotides at indicated concentrations for 20 hr. Luciferase activity/unit protein was determined and the magnitude of induction was shown compared to cells not treated with oligonucleotides. AS2M4: a 4 bp mismatch control of AS5-2. K: an unrelated oligonucleotide.
In order to determine whether the p53 protein that accumulates after inhibition of MDM2 is functionally active, a p53-responsive BP100-luciferase reporter plasmid was transfected into several representative cell lines. Stably transfected cells were then treated with AS5-2 or control oligonucleotides. […] The magnitude of p53 transcription activation is consistent with the fact that most of the p53 accumulation occurs in the nucleus, which has a low basal level of p53.

For data set [2], the system named is DNA synthesis. The data set can be described thus: DNA synthesis by BrdU incorporation normalized to viable cells. The format is cell-based. Conditions: cell lines that do not undergo significant apoptosis, 100 nM, 20 hr (FIG. 15).
For data set [3], the system named is p21/WAF1. Nature of the data set: p21/WAF1 induction by Western blot in JAR cells. The format is cell-based, human. Conditions: 200 nM, relative to control-treated cells. As for the experimental part: To assess the ability of the oligonucleotides of the invention to induce the expression of a p53-inducible gene, p21/WAF1 levels were examined in oligonucleotide-treated JAR cells. Total protein was purified from control oligonucleotide-treated cells and from antisense oligonucleotide-treated cells (200 nM oligonucleotide AS5) as described in Example 1. Equal amounts of purified total protein were immunoprecipitated and analyzed by Western blotting carried out for MDM2 detection using a polyclonal rabbit anti-human p21/WAF1 serum. Following hybridization, the blots were exposed to XAR film (Eastman Kodak, Rochester, N.Y.) and the autoradiograms are quantitated by phosphoroimaging.

Data set [4] relates to JAR cells. The data set can be described thus: Induction of apoptosis / cell death in JAR cells. The data set is classed as cell-based, human. Conditions: 400 nM. As for the experimental part: JAR cells (ATCC) were grown in DMEM medium supplemented with 1% FBS according to standard cell culture techniques. Cells were then treated for 30 hours with growth medium containing 400 nM of either antisense oligonucleotide AS5 (SEQ ID NO:28) complementary to a portion of MDM2-encoding RNA or control oligonucleotide M4 (SEQ ID NO:5), and 7 μg/ml lipofectin (Gibco BRL Paisley, UK). Treated cells were then photographed using a phase contrast microscope.
JAR cells were treated for 24 hours as described in Example 6. Floating cells were harvested and chromosomal DNA was extracted according to standard techniques (Liu et al., Cell 86:147-157 (1996)). Purified DNA was then analyzed by agarose gel electrophoresis on a 2% agarose gel. Following electrophoresis the gel was stained with 0.5 μg/ml ethidium bromide.

Data set [5] deals with p21/WAF1. Conditions: optimal concentration 200 nM; cited from earlier work.
Data set [6] deals with JAR cells. Conditions: cited from earlier work.
Data set [7] concerns MDM2 mRNA. The data set can be described thus: Northern blot of MDM2 mRNA in JAR cells. The format is cell-based, human. Conditions: 200 nM, 18 h. As for the experimental part: JAR cells were treated with 200 nM of antisense oligonucleotide AS5 (SEQ ID NO:28) with no oligonucleotide, with 200 nM of control oligonucleotide M4 (SEQ ID NO:5). After 18 hours, the treated cells were harvested and RNA was purified and quantitated according to standard methods. (see e.g., Current Protocols in Molecular Biology, John Wiley & Sons Inc. (1995)). Twenty μg of total RNA were run on a 1% agarose denaturing gel. MDM2 mRNA was detected by hybridization using an EcoRI-NcoI fragment specific for the human MDM2 cDNA between nucleotides 310-1633. The filter was then stripped and reprobed with a 1.2 kb fragment, which is a full length human GAPDH cDNA to normalize values on the basis of loading variations, according to standard methods.

In data set [8] the test system is p53. Nature of the data set: p53-responsive BP100-luciferase reporter in JAR cells. The format is cell-based, human.
In data set [9] the test system is JAR-TK-luc and H1299-BP100-luc cells. Nature of the data set: Control luciferase reporters in JAR-TK-luc and H1299-BP100-luc cells. The format is cell-based, human. As for the experimental part:
JAR cells stably transfected with a luciferase reporter driven by the thymidine kinase gene promoter (JAR-TK-luc) and H1299 cells containing no p53 that had been stably transfected with BP100-luciferase (H1299-BP1000-luc) were also tested. […] Similar results were also observed using AS5 in osteosarcoma SJSA cells (data not shown).

In data set [10] the test system is tumor cell lines. Nature of the data set: Cell death / apoptosis in other cell lines. The format is cell-based, human. Conditions: H1299 cells (lack p53).
The subject of data set [11] is tumor cell lines. Conditions: H1299 cells that lack p53; cited from earlier work.
The test system of data set [12] is p53-MDM2 complex. Nature of the data set: Co-immunoprecipitation of p53-MDM2 complex in JAR cells. The data set is classed as cell-based, human. The source says: Protein lysates from JAR cells treated with antisense oligonucleotides as described in Example 1 were immunoprecipitated with anti-p53 monoclonal antibody Pab421 (FIGS. 4A and 4B) (Harlow et al. J. Virol. 39:861-869 (1981)) or with polyclonal antibody 2A10 (panel C) according to the methods described in Example 1. The gel was then transferred onto an Immobilon P membrane (Millipore, Bedford, Mass.) to detect MDM2 co-precipitates.

Data set [13] deals with p53. The data set can be described thus: Nuclear p53 level by immunofluorescence staining with Pab1801. The format is cell-based, human. Conditions: MCF-7 cells, 200 nM, 20 hr.
Data set [14] has as its system MDM2. Nature of the data set: MDM2 protein level by immunoprecipitation/Western blot in oligonucleotide-treated cells. The format is cell-based, human. Conditions: JAR cells, 18 h, Lipofectin 7 μg/ml, Western blot (FIG. 2A).
For data set [15], the system named is MDM2. Conditions: JAR and SJSA cells, 100-400 nM, Lipofectin; cited from earlier work.

Where two headings read alike, the source gives them in different places. Strand notation (5' to 3'): a small letter for the sugar, then the base; units joined by * are phosphorothioate-linked, units joined directly phosphodiester-linked; [ ] holds rarer units or linkages, { } end groups; capitals alone tell only the bases. d = 2'-deoxy (DNA)

With “AS2M4: 4 bp mismatch control of AS5-2, 5′-TGACTCTTGTCCTTACTCAC-3′; SEQ ID NO: 26 (DNA dT*dG*dA*dC*dT*dC*dT*dT*dG*dT*dC*dC*dT*dT*dA*dC*dT*dC*dA*dC)”, the “induction of p53 transcription function” value in [1] was “significantly reduced efficiency”. The “rate of DNA synthesis (BrdU incorporation)” value in [2] is on record as “weaker”.

Turning to “AS5: anti-MDM2 antisense PS-oligo SEQ ID NO:28, 5′-GATCACTCCCACCTTCAAGG-3′ (DNA dG*dA*dT*dC*dA*dC*dT*dC*dC*dC*dA*dC*dC*dT*dT*dC*dA*dA*dG*dG)”, the “induction of p21/WAF1” value in [3] was “up to 6.6 fold”. The “chromosomal DNA cleavage in floating cells” value in data set [4] (24 h, agarose gel) was “nucleosomal-sized low molecular weight bands characteristic of apoptosis”. The “cell death / apoptosis morphology” value in data set [4] (30 h, Lipofectin) is on record as “induced significant cell death”. Besides, the “induction of p21 expression” value in data set [5] is reported as “up to 6.6 fold”. Moreover, the values for the apoptosis entry in data set [6], in [10] and in data set [11] were “significant increase in the levels of apoptosis”, “did not cause visible apoptosis” and “did not cause visible apoptosis”, respectively. Besides, the “increase of MDM2 mRNA” value in data set [7] is 2.5 fold. Besides, in [7], the “molecular weight of the MDM2 mRNA band” value was “slight decrease in the molecular weight of the MDM2 mRNA band”. Further, in data set [8], the “induction of p53 activity among the initial antisense oligonucleotides tested” value was “most effective”. In [8] (JAR BP100-luc, 200 nM, 24 h), the “activation of p53-responsive reporter expression” value is recorded as 7 fold. Moreover, the “activation of the p53 reporter” value in data set [8] (JAR BP100-luc, 48 h, AS5 200 nM, CPT alone, AS5 alone or co-incubation) stood at 17 fold. The “activation of reporter gene in control cells” value in data set [9] is listed as “did not activate the reporter gene”. Also, the “total p53 levels” value in data set [12] (JAR cells (FIG. 4A)) is listed as “did not change”. For the same substance, in [12] (JAR cells (FIG. 4B)), the “amount of MDM2 co-precipitated with p53” value is given as “reduced”. Besides, in data set [13], the “nuclear p53 staining” value is on record as “similar, but weaker”. The “inhibition of MDM2 expression” value in data set [14] was 3-5 fold. For the same substance, the “decrease of MDM2 protein levels” value in [15] is on record as 3-5 fold.
